Assay results from US9476099B2 (TRUSTEES OF DARTMOUTH COLLEGE, priority 2012, dated 2016).

System: gene promoters in NT2/D1-R1 control and DNMT3B knockdown cells
Assay: Genome-wide promoter methylation analysis, HumanMethylation27 BeadChip (Table 15)
Format: cell-based, human
Settings: sh-ctrl + 5aza; NT2/D1-R1 control cells
Method: DNA methylation analysis was performed in samples in triplicate using the […] […] assay with the HumanMethylation27 BeadChip ([…]) and the BeadChip was scanned on the BeadArray Reader ([…]), according to the manufacturer's instructions. Raw data was normalized and analyzed with Genome Studio software ([…]). The HumanMethylation27 BeadChip assays 27,578 CpGs covering more than 14,000 genes, mostly from promoter regions. […] Hierarchical clustering was performed as stated above. HumanMethylation27 BeadChip data and gene expression microarray data were submitted to NCBI GEO.

## Nc1ncn([C@H]2C[C@H](O)[C@@H](CO)O2)c(=O)n1 [5aza]
  Mean promoter methylation, GALR1 cg04534765: 0.440
  Mean promoter methylation, GCN5L2 cg08434547: 0.555
  Mean promoter methylation, GNAS cg00943909: 0.621
  Mean promoter methylation, HBQ1 cg07703401: 0.587
  Mean promoter methylation, HCN1 cg11285003: 0.369
  Mean promoter methylation, HES6 cg24127874: 0.763
  Mean promoter methylation, HEYL cg25462291: 0.576
  Mean promoter methylation, HRH3 cg08186362: 0.666
  Mean promoter methylation, ICAM1 cg22874046: 0.349
  Mean promoter methylation, ID2 cg23525180: 0.576
  Mean promoter methylation, IGFBP3 cg04796162: 0.501
  Mean promoter methylation, KATNB1 cg15153383: 0.474
  Mean promoter methylation, KCNAB1 cg23873703: 0.548
  Mean promoter methylation, KCNC2 cg18573383: 0.277
  Mean promoter methylation, KIAA1822 cg02867079: 0.842
  Mean promoter methylation, KIAA1840 cg06121469: 0.365
  Mean promoter methylation, KRTCAP2 cg11278262: 0.432
  Mean promoter methylation, LGALS1 cg00292662: 0.493
  Mean promoter methylation, LGR6 cg23578193: 0.423
  Mean promoter methylation, LOX cg06508445: 0.190
  Mean promoter methylation, MAP6D1 cg03705396: 0.522
  Mean promoter methylation, MGC9850 cg21097640: 0.292
  Mean promoter methylation, MRPL38 cg11653266: 0.224
  Mean promoter methylation, MT cg14078309: 0.213
  Mean promoter methylation, MYOD1 cg18555440: 0.561
  Mean promoter methylation, OGG1 cg25415932: 0.526
  Mean promoter methylation, OR10J1 cg25076881: 0.576
  Mean promoter methylation, OSTbeta cg16029760: 0.344
  Mean promoter methylation, PABPC4 cg12585282: 0.296
  Mean promoter methylation, PDE8B cg18089852: 0.203
  Mean promoter methylation, PHLDA2 cg01263716: 0.504
  Mean promoter methylation, PHLDA2 cg04720330: 0.379
  Mean promoter methylation, PIB5PA cg18053607: 0.403
  Mean promoter methylation, PLOD1 cg23286660: 0.468
  Mean promoter methylation, PPCDC cg11632617: 0.523
  Mean promoter methylation, PRDM12 cg09191327: 0.457
  Mean promoter methylation, PRMT8 cg23739862: 0.125
  Mean promoter methylation, PTPRO cg19402885: 0.671
  Mean promoter methylation, PTPRO cg27196745: 0.570
  Mean promoter methylation, R3HDML cg17692403: 0.529
  Mean promoter methylation, RAB37 cg12448933: 0.483
  Mean promoter methylation, RASA4 cg05749161: 0.157
  Mean promoter methylation, RASL11A cg06611744: 0.348
  Mean promoter methylation, SCAMP3 cg01745448: 0.308
  Mean promoter methylation, SCARA5 cg10171125: 0.408
  Mean promoter methylation, SEC14L2 cg14452140: 0.705
  Mean promoter methylation, SH3BGRL3 cg03100146: 0.661
  Mean promoter methylation, SHH cg00577464: 0.433
  Mean promoter methylation, SLC6A5 cg20632573: 0.291
  Mean promoter methylation, SLC25A22 cg02973416: 0.702
  Mean promoter methylation, SLC35C2 cg02413850: 0.254
  Mean promoter methylation, SLIT1 cg07143898: 0.325
  Mean promoter methylation, SORCS3 cg16787600: 0.786
  Mean promoter methylation, SOX15 cg01029592: 0.276
  Mean promoter methylation, SOX15 cg13098960: 0.472
  Mean promoter methylation, SOX17 cg02919422: 0.617
  Mean promoter methylation, STXBP3 cg11666924: 0.260
  Mean promoter methylation, SUSD2 cg23349242: 0.631
  Mean promoter methylation, TBXA2R cg09998229: 0.659
  Mean promoter methylation, THAP3 cg11688219: 0.581
  Mean promoter methylation, TMEM25 cg20001829: 0.424
  Mean promoter methylation, TMEM106C cg25884854: 0.482
  Mean promoter methylation, TRAPPC1 cg01667702: 0.471
  Mean promoter methylation, UBA52 cg24356797: 0.192
  Mean promoter methylation, UNQ2446 cg10574499: 0.619
  Mean promoter methylation, VPREB1 cg18441959: 0.524
  Mean promoter methylation, ZGPAT cg04078896: 0.308
  Mean promoter methylation, ZGPAT cg18611245: 0.736
  Mean promoter methylation, ZNF585B cg03751813: 0.392
  Mean promoter methylation, ZNF702 cg07559730: 0.457
